Assay results taken from patent publication US7220775B2, “Compound useful for the treatment of neuropathic pain” (H. Lundbeck A/S, priority 2002, dated 2007).

Tests used:
h5HT1A = biological target: T1, h5HT1A (Homo sapiens, UniProt P08908); assay: 5-HT1A receptor binding (3H-8-OH-DPAT); settings: Table 8
T1 construct: expressed in transfected cells; host or cells: COS-7 cells, transient, vector pCEXV-3
Experimental: 5-HT1A Receptor: The cDNA corresponding to the 5-HT1A receptor open reading frames and variable non-coding 5′- and 3′-regions, was cloned into the eukaryotic expression vector pCEXV-3. These constructs were transfected transiently into COS-7 cells by the DEAE-dextran method (Cullen, 1987), and harvested after 72 hours. Radioligand binding assays were performed as described above for the 5-HT2A receptor, except that ^3H-8-OH-DPAT was used as the radioligand and nonspecific binding was determined by the addition of 10 μM mianserin.

Human 5HT1E receptor = biological target: T2, Human 5HT1E receptor (Homo sapiens, UniProt P28566); assay: 5HT1E receptor binding ([3H]-serotonin); settings: Table 8
T2 construct: expressed in transfected cells
Experimental: Human 5HT1B, 5HT1D, 5HT1E, 5HT1F, and 5HT7 Receptors: The cell lysates of LM(tk−) clonal cell line stably transfected with the genes encoding each of these 5HT receptor-subtypes were prepared as described above. Cell membranes were suspended in 50 mM Tris-HCl buffer (pH 7.4 at 37° C.) containing 10 mM MgCl2, 0.2 mM EDTA, 10 µM pargyline, and 0.1% ascorbate. […] Nonspecific binding was determined in the presence of 10 μM serotonin. The bound radioligand was separated by filtration through GF/B filters using a cell harvester.

Human 5HT2A receptor = biological target: T3, Human 5HT2A receptor (Homo sapiens, UniProt P28223); assay: 5HT2A receptor binding ([3H]ketanserin); settings: Table 8
T3 construct: expressed in transfected cells; host or cells: COS-7 cells, transient, vector pCEXV-3
Experimental: Human 5HT2A Receptor: The coding sequence of the human 5HT2A receptor was obtained from a human brain cortex cDNA library, and cloned into the cloning site of pCEXV-3 eukaryotic expression vector. This construct was transfected into COS-7 cells by the DEAE-dextran method (Cullen, 1987). Cells were harvested after 72 hours and lysed by sonication in 5 mM Tris-HCl, 5 mM EDTA, pH 7.5. The cell lysates were subjected to centrifugation at 1000 rpm for 5 minutes at 4° C., and the supernatant was subjected to centrifugation at 30,000×g for. 20 minutes at 4° C. The pellet was suspended in 50 mM Tris-HCl buffer (pH 7.7 at room temperature) containing 10 mM MgSO4, 0.5 mM EDTA, and 0.1% ascorbate. The affinity of compounds at 5HT2A receptors were determined in equilibrium competition binding assays using [^3H]ketanserin (1 nM). Nonspecific binding was defined by the addition of 10 μM mianserin. The bound radioligand was separated by filtration through GF/B filters using a cell harvester.

[1] = biological target: T4, human α1D adrenergic receptor (Homo sapiens, UniProt P25100); assay: α1D adrenergic receptor binding; settings: Table 10
T4 construct: expressed in transfected cells
Excerpt: (§1) Other receptors: Cell membranes expressing human dopamine D1, D2, D4 and rat D3 receptors were purchased through BioSignal, Inc. (Montreal, Canada). Binding assays using the histamine H, receptor; dopamine receptors; and α1A, α1B, and α2 adrenergic receptors may be carried out according to the procedures described in U.S. Pat. No. 5,780,485, the disclosure of which is hereby incorporated by reference in its entirety into this application. Binding assays using the dopamine D5 receptor may be carried out according to the procedures described in U.S. Pat. No. 5,882,855, the disclosure of which is hereby incorporated by reference in its entirety into this application. Binding assays for the human α1D adrenergic receptor may be carried out according to the procedures described in U.S. Pat. No. 6,156,518, the disclosure of which is hereby incorporated by reference in its entirety into this application.

human α2A adrenoceptor = biological target: T5, human α2A adrenoceptor (Homo sapiens, UniProt P08913); assay: α2A adrenergic receptor binding; settings: Table 10
T5 construct: expressed in transfected cells
Excerpt: as §1

[2] = biological target: T6, human dopamine D1 receptor (Homo sapiens, UniProt P21728); assay: Dopamine D1 receptor binding; settings: Table 10
T6 construct: purchased BioSignal, Inc. (Montreal, Canada)
Excerpt: as §1

rat D3 receptor = biological target: T7, rat D3 receptor (Rattus norvegicus, UniProt P19020); assay: Dopamine D3 receptor binding; settings: Table 10
T7 construct: purchased BioSignal, Inc. (Montreal, Canada)
Excerpt: as §1

T4 sequence (P25100 whole entry): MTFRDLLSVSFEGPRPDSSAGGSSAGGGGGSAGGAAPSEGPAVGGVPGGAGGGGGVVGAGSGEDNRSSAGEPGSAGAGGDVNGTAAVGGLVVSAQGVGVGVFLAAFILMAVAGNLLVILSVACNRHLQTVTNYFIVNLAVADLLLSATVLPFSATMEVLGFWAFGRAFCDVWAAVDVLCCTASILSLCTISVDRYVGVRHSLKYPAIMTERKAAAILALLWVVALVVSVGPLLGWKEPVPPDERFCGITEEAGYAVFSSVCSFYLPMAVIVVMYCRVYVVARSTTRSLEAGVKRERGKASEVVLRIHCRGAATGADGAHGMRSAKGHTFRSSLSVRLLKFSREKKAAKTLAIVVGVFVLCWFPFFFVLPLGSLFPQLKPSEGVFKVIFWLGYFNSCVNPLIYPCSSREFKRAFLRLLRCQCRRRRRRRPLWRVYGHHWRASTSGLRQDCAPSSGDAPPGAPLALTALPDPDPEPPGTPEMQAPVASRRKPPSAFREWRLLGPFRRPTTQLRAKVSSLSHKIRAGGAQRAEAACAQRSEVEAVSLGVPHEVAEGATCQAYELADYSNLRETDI
T2 sequence (P28566 whole entry): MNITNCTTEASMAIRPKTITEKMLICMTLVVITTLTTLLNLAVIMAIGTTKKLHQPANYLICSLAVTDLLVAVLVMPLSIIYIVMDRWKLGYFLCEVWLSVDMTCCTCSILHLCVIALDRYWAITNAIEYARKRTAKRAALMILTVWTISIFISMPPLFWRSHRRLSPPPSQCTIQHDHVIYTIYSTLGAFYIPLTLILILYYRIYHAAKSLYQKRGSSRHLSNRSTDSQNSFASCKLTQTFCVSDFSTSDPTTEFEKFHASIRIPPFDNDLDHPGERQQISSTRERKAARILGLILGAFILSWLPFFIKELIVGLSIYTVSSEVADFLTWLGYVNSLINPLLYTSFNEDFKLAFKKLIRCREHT
T7 sequence (P19020 whole entry): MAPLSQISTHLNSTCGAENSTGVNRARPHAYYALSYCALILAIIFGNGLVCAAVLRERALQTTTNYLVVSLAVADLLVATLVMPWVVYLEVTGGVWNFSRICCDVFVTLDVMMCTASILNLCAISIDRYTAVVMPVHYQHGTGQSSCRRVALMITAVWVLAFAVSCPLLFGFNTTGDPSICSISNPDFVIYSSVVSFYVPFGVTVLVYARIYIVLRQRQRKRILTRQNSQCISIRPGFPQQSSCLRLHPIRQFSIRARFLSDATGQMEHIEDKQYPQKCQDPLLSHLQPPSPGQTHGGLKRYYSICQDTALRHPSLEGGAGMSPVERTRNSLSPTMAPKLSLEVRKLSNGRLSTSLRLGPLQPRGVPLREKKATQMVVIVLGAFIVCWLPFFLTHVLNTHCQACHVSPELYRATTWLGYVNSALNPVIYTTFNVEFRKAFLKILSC
T6 sequence (P21728 whole entry): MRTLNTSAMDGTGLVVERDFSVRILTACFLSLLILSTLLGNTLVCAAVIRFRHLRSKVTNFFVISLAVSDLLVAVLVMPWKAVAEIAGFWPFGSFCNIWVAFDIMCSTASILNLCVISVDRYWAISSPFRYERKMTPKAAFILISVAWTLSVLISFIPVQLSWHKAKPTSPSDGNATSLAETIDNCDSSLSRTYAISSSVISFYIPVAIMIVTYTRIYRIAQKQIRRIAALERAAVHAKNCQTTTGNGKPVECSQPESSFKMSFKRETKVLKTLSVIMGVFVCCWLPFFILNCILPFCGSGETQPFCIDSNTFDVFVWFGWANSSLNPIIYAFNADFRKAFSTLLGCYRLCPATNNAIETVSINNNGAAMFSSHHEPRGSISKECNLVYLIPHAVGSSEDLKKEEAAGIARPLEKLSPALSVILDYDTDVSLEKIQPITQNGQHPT
T3 sequence (P28223 whole entry): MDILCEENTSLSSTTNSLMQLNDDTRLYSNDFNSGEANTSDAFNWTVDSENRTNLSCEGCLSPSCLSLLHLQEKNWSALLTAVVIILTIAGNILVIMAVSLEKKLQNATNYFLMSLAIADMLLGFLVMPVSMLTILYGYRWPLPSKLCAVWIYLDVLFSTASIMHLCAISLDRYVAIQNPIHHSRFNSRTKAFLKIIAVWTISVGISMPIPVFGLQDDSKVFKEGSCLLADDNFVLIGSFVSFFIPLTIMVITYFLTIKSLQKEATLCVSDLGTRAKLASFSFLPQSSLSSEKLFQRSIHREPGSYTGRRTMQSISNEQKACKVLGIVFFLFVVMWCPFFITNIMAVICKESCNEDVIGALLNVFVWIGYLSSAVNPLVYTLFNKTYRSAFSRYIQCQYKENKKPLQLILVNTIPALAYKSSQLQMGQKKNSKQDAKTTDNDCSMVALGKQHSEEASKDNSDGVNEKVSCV
T1 sequence (P08908 whole entry): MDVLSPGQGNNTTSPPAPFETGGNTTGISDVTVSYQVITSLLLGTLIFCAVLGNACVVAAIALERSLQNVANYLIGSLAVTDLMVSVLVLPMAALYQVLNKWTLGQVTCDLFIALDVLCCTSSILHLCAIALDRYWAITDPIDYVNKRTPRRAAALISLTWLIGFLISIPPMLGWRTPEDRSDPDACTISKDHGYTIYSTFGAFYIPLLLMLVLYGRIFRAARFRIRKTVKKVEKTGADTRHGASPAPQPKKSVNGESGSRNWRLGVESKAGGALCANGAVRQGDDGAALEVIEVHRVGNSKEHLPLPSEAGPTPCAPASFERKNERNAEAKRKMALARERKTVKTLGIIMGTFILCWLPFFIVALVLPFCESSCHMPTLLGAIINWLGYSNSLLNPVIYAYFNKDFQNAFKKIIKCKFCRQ
T5 sequence (P08913 whole entry): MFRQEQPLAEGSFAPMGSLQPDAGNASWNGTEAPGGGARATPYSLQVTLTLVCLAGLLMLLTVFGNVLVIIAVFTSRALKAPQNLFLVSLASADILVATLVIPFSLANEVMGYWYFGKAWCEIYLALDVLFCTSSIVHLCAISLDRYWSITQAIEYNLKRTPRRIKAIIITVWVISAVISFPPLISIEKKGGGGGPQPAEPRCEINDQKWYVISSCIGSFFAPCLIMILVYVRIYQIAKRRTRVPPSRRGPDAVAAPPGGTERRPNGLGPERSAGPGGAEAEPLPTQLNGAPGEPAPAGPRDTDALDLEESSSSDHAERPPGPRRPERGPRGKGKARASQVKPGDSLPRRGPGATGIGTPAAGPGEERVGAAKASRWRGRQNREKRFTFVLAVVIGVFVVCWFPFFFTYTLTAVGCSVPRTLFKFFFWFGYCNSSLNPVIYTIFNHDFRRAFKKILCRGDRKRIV

O=C1C(=Nc2cccc(C(F)(F)F)c2)c2ccccc2N1c1ccccc1 [Example 92, 1-PHENYL-3-[[3-(TRIFLUOROMETHYL)PHENYL]IMINO]-1,3-DIHYDRO-2H-INDOL-2-ONE]
>100: selectivity ratio h5HT1A (Ki h5HT1A / Ki hGAL3) (h5HT1A) | selectivity ratio h5HT1E (Ki h5HT1E / Ki hGAL3) (Human 5HT1E receptor) | selectivity ratio h5HT2A (Ki h5HT2A / Ki hGAL3) (Human 5HT2A receptor) | selectivity ratio hα1D (Ki hα1D / Ki hGAL3) [1] | selectivity ratio hα2A (Ki hα2A / Ki hGAL3) (human α2A adrenoceptor) | selectivity ratio hD1 (Ki hD1 / Ki hGAL3) [2] | selectivity ratio rD3 (Ki rD3 / Ki hGAL3) (rat D3 receptor)
